Holding throughout (assay type): cell-based, human
Assay [1] concerns IFN-γ production by RGP-specific TCL. Put plainly: IFN-γ detection in culture supernatants by sandwich ELISA. Particulars: supernatant at 48 h, UD undetectable, limit of detection 2 pg/ml. The protocol: (§1) Cytokine Detection in Culture Supernatants
(§2) Supernatants of triplicate cultures were harvested and pooled from T cell proliferation assay cultures at 48 hours for the detection of IL-5 and IFN-γ production by sandwich ELISA. Briefly white Maxisorp (NUNC, Roskilde, Denmark) ELISA plates were coated with capture mAb (anti-IL-5, Pharmingen, San Diego, Calif., USA; anti-IFN-γ, Endogen, Woburn, Mass. USA) overnight at 4° C. Plates were then washed and wells blocked with 1% Bovine Serum Albumin/PBS for 1 hour at room temperature. Following washing, test samples (neat) and serial dilutions of recombinant human IL-5 (Pharmingen, USA) or IFN-γ (Endogen, USA) (for the construction of standard curves) were added and incubated overnight at 4° C. Following washing, plates were incubated with biotinylated detecting mAb (anti-IL-5, Pharmingen, USA; […], Endogen, USA) for 1 hour at room temperature. Plates were then washed and incubated with streptavidin-peroxidase (Amersham, Piscataway, N.J., USA) for 30 minutes at room temperature. Following washing, a chemiluminescent substrate (Du Pont, Wilmington, Del., USA) was added to each well and plates read in a Lumicount microplate Glow Luminometer (Packard Instrument Company, Meriden, Conn., USA), 0.5 seconds/well, automatic sensitivity setting. Standard curve construction and determination of test sample cytokine levels were performed using Packard I-smart software. The limits of detection for IL-5 and IFN-γ were 10 pg/ml and 2 pg/ml respectively.

A further assay concerns RGP-specific TCL. Put plainly: TCL proliferation assay (3H-thymidine incorporation, stimulation index). Particulars: for Proliferative response, stimulation index: peptides 10 μg/ml. How it is done:
Generation of Short-Term RGP-Specific TCL
PBMC were cultured in 24-well plates (Costar, Mass., USA) at 2.5×10^6 cells/well with RGP extract at a concentration of 25 or 50 μg/ml in RPMI 1640 medium (Gibco BRL, NY, USA) supplemented with 2 mM GlutaMAX I (Gibco BRL), 0.05 mg/ml gentamicin (David Bull Laboratories, Mulgrave, Victoria, Australia) and 5% heat-inactivated hunan AB^+ serum (Sigma, Mo., USA) for 7 days at 37° C. in a 5% CO2 humidified incubator. At day 7, cells were washed once and restimulated in 24-well plates at 5×10^5 cells/well width 25 or 50 μg/ml of RGP extract in the presence of 5×10^5 cells/well irradiated (3000 rads) autologous PBMC as a source of antigen presenting cells (APC). At day 2 following restimulation, 10 U/ml of Lymphocult T-LF (LC; Biotest, Germany) was added as a source of IL-2 and at day 4, 1 ml of culture medium was removed and replaced with fresh medium and 10 U/ml of LC. […] In all experiments T cells were rested for 6 to 7 days after the last addition of antigen and APC before testing.
T cells (5×10^4/well) were cultured in 96-well U bottom plates with either RGP extract at concentrations ranging from 25 to 200 μg/ml, purified Lol p 1 (0.12 to 2 μg/ml) or Lol p 5 (0.1 to 10 μg/ml), or Lol p 1 or Lol p 5 peptides (10 μg/ml), or medium alone (to determine background levels of proliferation), in the presence of washed autologous irradiated (3000 rads) PBMC (5×10^4/well). […] Cultures were incubated for 3 days, pulsed for the last 16 hours with ^3H-thymidine (1 μCi/well) and harvested onto glass fibre filters. ^3H-thymidine incorporation was measured by liquid scintillation spectroscopy and the mean counts per minute (cpm) for triplicate cultures was determined. Responses were considered positive if the stimulation index (SI, cpm of antigen-stimulated T cells divided by cpm of unstimulated T cells) was ≧2.5. Where several concentrations of allergen were tested (i.e., RGP, Lol p 1 and Lol p 5), values corresponding to the highest proliferation are shown.
(Incorporation of labelled thymidine or its analogues reports DNA synthesis.)

In assay [2] the test system is IL-5 production by RGP-specific TCL. Kind of assay: IL-5 detection in culture supernatants by sandwich ELISA. Particulars: Lol p 1 peptides, supernatant at 48 h, UD undetectable, limit of detection 10 pg/ml. The protocol: as §1, §2
On the technique in general: ELISA stands for enzyme-linked immunosorbent assay.

Where [3] appears, read: Subject 15 TCL, Lol p 1 peptides.
The mark [4] stands for this setting: Subject 19 TCL, Lol p 1 peptides.
Where [5] appears, read: Subject 4 TCL, Lol p 1 series (Table 3), RGP and Lol p 1 maximal response.
[6] abbreviates: Subject 15 TCL, Lol p 1 series (Table 3), RGP and Lol p 1 maximal response.
Setting [7] is: Subject 19 TCL, Lol p 1 series (Table 3), RGP and Lol p 1 maximal response.
[8] abbreviates: Subject 3 TCL, Lol p 1 peptides.
The mark [9] stands for this setting: Subject 2 TCL, Lol p 1 series (Table 3), RGP and Lol p 1 maximal response.
Setting [10] is: Subject 3 TCL, Lol p 1 series (Table 3), RGP and Lol p 1 maximal response.
Setting [11] is: Subject 17 TCL, Lol p 1 series (Table 3), RGP and Lol p 1 maximal response.
The mark [12] stands for this setting: Subject 7 TCL, Lol p 1 series (Table 3), RGP and Lol p 1 maximal response.

The values below come from patent US20060084789A1, “Immunotherapeutic and immunoprphylactic reagents” (priority 2002, published 2006).

In the case of “KPTGAGPKDNGGACGYKDVD (Lolium perenne) [Lol p 1 peptide 28-47]”, the “IFN-γ, proliferation inducing peptides” value in assay [1] (setting [3]) is 23.2 pg/mL; in assay [1] (setting [4]), 5.2 pg/mL. In addition, the “Proliferative response, stimulation index” value is given as 4.1 in the assay with RGP-specific TCL (setting [5]); 3.5 with RGP-specific TCL (Subject 11 TCL, Lol p 1 series (Table 3), RGP and Lol p 1 maximal response); 7.6 in the assay on RGP-specific TCL (setting [6]); 3.0 with RGP-specific TCL (setting [7]).

As for “Lol p 1 peptide 1-20: synthetic 20-mer, amino acids 1-20 of Lol p 1A (SEQ ID NO:1) (IAKVPPGPNITAEYGDKWLD; Lolium perenne)”, the “IL-5, proliferation inducing peptides” value in assay [2] (Subject 74 TCL) was 46.1 pg/mL. The “Proliferative response, stimulation index” value in the assay on RGP-specific TCL (Subject 24 TCL, Lol p 1 series (Table 3), RGP and Lol p 1 maximal response) amounted to 2.6.

With “Lol p 1 peptide 37-56: synthetic 20-mer, amino acids 37-56 of Lol p 1A (SEQ ID NO:1) (NCGACGYKDVDKAPFNGMTG; Lolium perenne)”, the “IL-5, proliferation inducing peptides” value in assay [2] (Subject 20 TCL) worked out at 46.9 pg/mL. In assay [1] (Subject 20 TCL, Lol p 1 peptides), the “IFN-γ, proliferation inducing peptides” value was 11.1 pg/mL. The “Proliferative response, stimulation index” value is given as 2.5 in the assay with RGP-specific TCL (setting [5]); 2.6 in the assay on RGP-specific TCL (Subject 20 TCL, Lol p 1 series (Table 3), RGP and Lol p 1 maximal response).

As for “GHAFGSMAKKGEEQNVRSAG (Lolium perenne) [Lol p 1 peptide 109-128]”, the “IL-5, proliferation inducing peptides” value in assay [2] (Subject 15 TCL) came to 160.7 pg/mL. The “IFN-γ, proliferation inducing peptides” value in assay [1] (setting [8]) came to 32.1 pg/mL; in assay [1] (setting [3]), 143.3 pg/mL; in assay [1] (Subject 16 TCL, Lol p 1 peptides), 13.8 pg/mL; in assay [1] (setting [4]), 8.0 pg/mL. Moreover, the “Proliferative response, stimulation index” value with RGP-specific TCL (setting [9]) turned out to be 12.9; in the assay with RGP-specific TCL (setting [10]), 2.8; in the assay with RGP-specific TCL (setting [6]), 7.1; in the assay on RGP-specific TCL (Subject 16 TCL, Lol p 1 series (Table 3), RGP and Lol p 1 maximal response), 3.0; in the assay on RGP-specific TCL (setting [11]) it was 2.7; with RGP-specific TCL (setting [7]), 12.0.

Consider “Lol p 1 peptide 64-83: synthetic 20-mer, amino acids 64-83 of Lol p 1A (SEQ ID NO:1) (KDGRGCGSCFEIKCTKPESC; Lolium perenne)”, for which the “IL-5, proliferation inducing peptides” value in assay [2] (Subject 15 TCL) turned out to be 26.5 pg/mL. Further, the “IFN-γ, proliferation inducing peptides” value in assay [1] (setting [3]) is 38.8 pg/mL. For the same substance, the “Proliferative response, stimulation index” value with RGP-specific TCL (Subject 1 TCL, Lol p 1 series (Table 3), RGP and Lol p 1 maximal response) came out at 7.2; in the assay with RGP-specific TCL (setting [12]) it was 3.5; in the assay on RGP-specific TCL (setting [6]), 3.5.

Consider “LDAKSTWYGKPTGAGPKDNG (Lolium perenne) [Lol p 1 peptide 19-38]”, for which the “IL-5, proliferation inducing peptides” value in assay [2] (Subject 15 TCL) came out at 182.7 pg/mL. For the same substance, the figures for the “IFN-γ, proliferation inducing peptides” value in assay [1] (setting [8]), in assay [1] (setting [3]) and in assay [1] (setting [4]) were 20.9 pg/mL, 204.1 pg/mL and 2.8 pg/mL, respectively. In addition, the “responder frequency among Lol p 1 peptide-responsive donors” value in the assay on RGP-specific TCL (Lol p 1 peptide-responsive RGP-specific TCL, SI ≥2.5 positive, listed as Lol p 1 (19-3 8)) turned out to be 46%. Besides, the “Proliferative response, stimulation index” value with RGP-specific TCL (setting [9]) turned out to be 5.2; with RGP-specific TCL (setting [10]), 3.3; in the assay on RGP-specific TCL (setting [5]), 12.3; with RGP-specific TCL (Subject 6 TCL, Lol p 1 series (Table 3), RGP and Lol p 1 maximal response), 2.7; in the assay on RGP-specific TCL (setting [12]) it was 3.2; in the assay on RGP-specific TCL (Subject 8 TCL, Lol p 1 series (Table 3), RGP and Lol p 1 maximal response), 3.8. The “Proliferative response, stimulation index” value with RGP-specific TCL (Subject 12 TCL, Lol p 1 series (Table 3), RGP and Lol p 1 maximal response) was determined as 7.5; in the assay with RGP-specific TCL (setting [6]), 10.5; in the assay with RGP-specific TCL (setting [11]) it was 5.3; with RGP-specific TCL (setting [7]), 10.3; in the assay on RGP-specific TCL (Subject 21 TCL, Lol p 1 series (Table 3), RGP and Lol p 1 maximal response), 3.8.

For “Lol p 1 peptide 136-155: synthetic 20-mer, amino acids 136-155 of Lol p 1A (SEQ ID NO:1) (RRVKCKYPDGTKPTFHVEKA; Lolium perenne)”, in assay [1] (Subject 14 TCL, Lol p 1 peptides), the “IFN-γ, proliferation inducing peptides” value was 106.4 pg/mL. The “Proliferative response, stimulation index” value with RGP-specific TCL (setting [5]) was found to be 2.5; with RGP-specific TCL (Subject 14 TCL, Lol p 1 series (Table 3), RGP and Lol p 1 maximal response), 4.4.

Consider “AALTKAITAMTQAQKAGKPA (Lolium perenne) [Lol p 5 peptide 226-245]”, for which the “IFN-γ, proliferation inducing peptides” value in assay [1] (Subject 2 TCL, Lol p 5 peptides) worked out at 292.0 pg/mL. The “Proliferative response, stimulation index” value came out at 3.3 in the assay with RGP-specific TCL (Subject 2 TCL, Lol p 5 series (Table 4), RGP and Lol p 5 maximal response); 3.5 with RGP-specific TCL (Subject 11 TCL, Lol p 5 series (Table 4), RGP and Lol p 5 maximal response); 2.0 in the assay with RGP-specific TCL (Subject 13 TCL, Lol p 5 series (Table 4), RGP and Lol p 5 maximal response); 7.1 in the assay with RGP-specific TCL (Subject 27 TCL, Lol p 5 series (Table 4), RGP and Lol p 5 maximal response, † affinity purified Lol p 5).

For “AFSESSKGLLATSAAKAPGL (Lolium perenne) [Lol p 5 peptide 64-83]”, the “Proliferative response, stimulation index” value in the assay with RGP-specific TCL (Subject 4 TCL, Lol p 5 series (Table 4), RGP and Lol p 5 maximal response) is given as 2.8; with RGP-specific TCL (Subject 7 TCL, Lol p 5 series (Table 4), RGP and Lol p 5 maximal response), 2.8.

Take “Lol p 5 peptide 181-200: synthetic 20-mer, amino acids 181-200 of Lol p 5A (SEQ ID NO:2) (NKALNECTGGAYETYKFIPS; Lolium perenne)”: in the assay on RGP-specific TCL (Subject 20 TCL, Lol p 5 series (Table 4), RGP and Lol p 5 maximal response), the “Proliferative response, stimulation index” value was determined as 3.4.
